Measurements taken from patent US8314071B2, “Bioactive molecules from co-cultivation of microbes” (Massachusetts Institute of Technology, priority 2007, dated 2012).

What was measured:
[1] = tested on: Bacillus subtilis; test: paper disk diffusion, Bacillus subtilis; format: cell-based; settings: paper disk (6 mm in diameter) containing 30 μg on agar plate
Description: (§1) No evidence of activity against eukaryotes, such as S. cerevisiae or cytotoxicity against human leukemia (HL-60) was observed.
(§2) Antimicrobial activity was measured by the conventional paper disk diffusion method. See Bauer, A. W.; Kirby, W. M.; Sherris, J. C.; Turck, M. Am. J. Clin. Pathol. 1966, 45, 493-96; and Hachem, C. Y.; Clarridge, J. E.; Reddy, R.; Flamm, R.; Evans, D. G.; Tanaka, S. K.; Graham, D. Y. Diagn. Microbiol. Infect. Dis. 1996, 24, 37-41. The bioactive fractions during the purification procedures were confirmed by activity against Streptomyces padanus, while pure rhodostreptomycins were tested for activity against S. padanus, Escherichia coli, Staphylococcus aureus, Bacillus subtilis, Helicobacter pylori and Saccharomyces cerevisiae. In this method, each paper disk (Whatman AA Discs, 6 mm) containing the extract or 30 μg of the pure compounds was placed directly onto an agar plate that had been freshly inoculated with a lawn of the test organism. The activity was estimated by measuring the diameters of the inhibition zones.

[2] = tested on: Escherichia coli; test: paper disk diffusion, Escherichia coli; format: cell-based; settings: paper disk (6 mm in diameter) containing 30 μg on agar plate
Description: as §1, §2

[3] = solubility in solvents; format: physicochemical
[4] = tested on: Staphylococcus aureus; test: paper disk diffusion, Staphylococcus aureus; format: cell-based; settings: paper disk (6 mm in diameter) containing 30 μg on agar plate
Description: as §1, §2

[5] = tested on: Streptomyces padanus; test: paper disk diffusion, Streptomyces padanus; format: cell-based; settings: paper disk (6 mm in diameter) containing 30 μg on agar plate
Description: as §1, §2

[6] = tested on: Saccharomyces cerevisiae; test: paper disk diffusion, Saccharomyces cerevisiae; format: cell-based; settings: paper disk (6 mm in diameter) containing 30 μg on agar plate
Description: as §1, §2

[7] = tested on: Helicobacter pylori; test: paper disk diffusion, Helicobacter pylori; format: cell-based; settings: paper disk (6 mm in diameter) containing 30 μg on agar plate
Description: as §1, §2

[8] = tested on: Gram-negative and Gram-positive bacteria; test: conventional disk assays on microbial lawns, overall; format: cell-based; settings: rhodostreptomycin B (2) compared with rhodostreptomycin A (1)
Description: as §1, §2

For `CN[C@@H]1[C@H](O[C@H]2[C@H](O[C@H]3[C@H](O)[C@@H](O)[C@H](N=C(N)N)[C@@H](O)[C@@H]3N=C(N)N)O[C@H](C)[C@@]23OC(=O)N[C@H]3O)O[C@@H](CO)[C@H](O)[C@H]1O` [Rhodostreptomycin 1, Rhodostreptomycin A], the “diameter of inhibition zone” value [1] was 8 mm, the “diameter of inhibition zone” value [2] was 8 mm and the “solubility in chloroform or n-hexane” value [3] was “not in chloroform or n-hexane”. For the same compound, the solubility in water [3] was “highly soluble in water”, the “diameter of inhibition zone” value [4] was 9 mm and the “diameter of inhibition zone” value [5] was 15 mm. For the same compound, the “diameter of inhibition zone” value [6] was 0 mm and the “diameter of inhibition zone” value [7] was 10 mm.
In the case of `CN[C@@H]1[C@H](O[C@H]2[C@H](O[C@H]3[C@H](O)[C@@H](O)[C@H](N=C(N)N)[C@@H](O)[C@@H]3N=C(N)N)O[C@H](C)[C@@]23OC(=O)N[C@@H]3O)O[C@@H](CO)[C@H](O)[C@H]1O` [Rhodostreptomycin 2, Rhodostreptomycin B], the “diameter of inhibition zone” value [1] is reported as 14 mm, the “activity relative to the other isomer” value [8] is reported as “more potent” and the “diameter of inhibition zone” value [2] is reported as 12 mm. For the same compound, the “solubility in chloroform or n-hexane” value [3] was “not in chloroform or n-hexane”, the solubility in water [3] was “highly soluble in water” and the “diameter of inhibition zone” value [4] was 14 mm. The “diameter of inhibition zone” value [5] was 18 mm, the “diameter of inhibition zone” value [6] was 0 mm and the “diameter of inhibition zone” value [7] was 18 mm.
